According to patent US20170240570A1, “NOVEL SMALL MOLECULE ANTICANCER AGENTS” (UNIVERSITY OF FLORIDA RESEARCH FOUNDATION, priority 2014, published 2017):
Entries after “also recorded” stand apart in the source; their conditions may differ.

Tests used:
Format in all cases: cell-based, human
[1] = system: HER2, EGFR, Akt, Erk, S6, PARP in HCC1954 cells; assay: Immunoblot analysis of treated cells
Description: Immunoblot analysis of HCC1954 cells treated as in 8B.

HCC1954 cells = assay: Viability in MTT assay; details: 24 h
Description: FIG. 8. depicts 8A) Viability of HCC1954 cells treated as indicated for 24 h measured in MTT assays.

[2] = system: EGFR, HER2, HER3, Akt, Erk, PARP in MDA-MB-468 cells; assay: Immunoblot analysis of treated cells
Description: FIG. 3. depicts 3A) the analysis of MDA-MB-468 cells treated as indicated for 24 h by immunoblot for levels of EGFR and EGFR phosphorylation. 3B) the analysis of MDA-MB-468 cells treated as indicated for 24 h by immunoblot for PARP cleavage. 3C) MDA-MB-468 cells were either left untreated, or treated with 20 μM NSC624205 for 24 hours. NSC624205-treated cells were then washed and incubated for the indicated periods in the absence of drug. EGFR electrophoretic mobility was analyzed by immunoblot. 3D) MDA-MB-468 cells were pretreated with 25 μM NSC624205 or vehicle for 15 hours and then either left untreated or stimulated for 15 minutes with 20 ng/ml EGF, after which cell extracts were analyzed by immunoblot. 3E) MDA-MB-468 cells were treated as indicated for 24 hours and analyzed by immunoblot.
FIG. 5. depicts 5A) Photomicrographs of MDA-MB-468 cells treated for 24 h with 20 μM of the indicated compounds. 5B) Immunoblot analysis of MDA-MB-468 cells treated as in 5A. […] 5D) Viability of BT474 or MDA-MB-468 cells treated for 24 h with the indicated drug at the specified concentrations was measured in MTT assays. Assays were carried out in triplicate and results were presented as the average±S.D. 5E) Proliferation of tert-immortalized human mammary epithelial cells (HMEC-tert) and MDA-MB-468, BT474, and SKBR3 breast cancer cells after incubation with the indicated concentrations of RBF3 for 24 h was measured in thymidine incorporation assays as described in FIG. 2D. 5F)-5H) The indicated cell lines were treated with the indicated compounds at 20 μM unless otherwise indicated for 24 h and analyzed by immunoblot.
To examine the reversibility of NSC624205 actions, MDA-MB-468 cells were treated for 24 hr with NSC624205 and then the compound was washed out and the cells were allowed to recover for various periods of time. […] To examine whether NSC624205 can suppress cellular responses to EGF, cells were stimulated with EGF either with or without NSC624205 treatment.

[3] = system: MDA-MB-468 breast cancer cells; assay: Cell viability / cell killing, photomicrographs of treated cells
Description: (§1) FIG. 2. depicts 2A) Photomicrographs of MDA-MB-468 or BxPC3 cells treated for 24 hours with 25 μM NSC624205 or the vehicle control. 2B) MDA-MB-468 cells were treated for 24 hours with the indicated concentrations of NSC624203, NSC624204, and NSC624205 and cell viability (mass) was measured by crystal violet staining. 2C) Photomicrographs of MDA-MB-468, SKBR3, or MDA-MB-231 cells treated for 24 h with 10 μM NSC624205 or the vehicle control. 2D) Cell proliferation was measured by thymidine incorporation through the treatment of MDAMB-468 and SKBR3 cells for 24 hours with NSC624203, an EGFR/HER2 inhibitor, or a combination of the two compounds. Results are presented as the average of triplicate determinations±S.D. 2E) The indicated cancer cell lines were treated for 24 h with 20 μM NSC624205 or vehicle and cell extracts were analyzed by immunoblot. Actin serves as a loading control.
FIG. 5. depicts 5A) Photomicrographs of MDA-MB-468 cells treated for 24 h with 20 μM of the indicated compounds. 5B) Immunoblot analysis of MDA-MB-468 cells treated as in 5A. 5C) Chemical structures of Disulfide bond Disrupting Agents (DDAs) showing active compounds on the left side with the pharmacophore highlighted in red, along with the generic pharmacophore. […] The exception to this rule is NSC627175/DTDO, which represents a different pharmacophore. 5D) Viability of BT474 or MDA-MB-468 cells treated for 24 h with the indicated drug at the specified concentrations was measured in MTT assays. Assays were carried out in triplicate and results were presented as the average±S.D. 5E) Proliferation of tert-immortalized human mammary epithelial cells (HMEC-tert) and MDA-MB-468, BT474, and SKBR3 breast cancer cells after incubation with the indicated concentrations of RBF3 for 24 h was measured in thymidine incorporation assays as described in FIG. 2D. 5F)-5H) The indicated cell lines were treated with the indicated compounds at 20 μM unless otherwise indicated for 24 h and analyzed by immunoblot.
The sulfur atom in sulfinic acids can act as a nucleophile capable of breaking disulfide bonds. […]

[4] = system: BxPC3 pancreatic cancer cells; assay: Cell viability, photomicrographs of treated cells; details: 25 μM, 24 hours
Description: as §1
(§2) The sulfur atom in sulfinic acids can act as a nucleophile capable of breaking disulfide bonds. Therefore we obtained several sulfinate-containing compounds from the National Cancer Institute's Developmental Therapeutics Program (NCI/DTP) and, as an initial screen, examined their ability to decrease the viability of various human cancer cell lines. […] NSC624205 and two related compounds, NSC624203 and NSC624204, decreased cell viability by 50% in the range of 3.7-33 μM (FIG. 2B). […]

[5] = system: MDA-MB-231 breast cancer cell line; assay: Cell killing, photomicrographs of treated cells; details: 10 μM, 24 hr
Description: as §1, §2

SKBR3 cells [6] = assay: Cell killing, photomicrographs of treated cells; details: 10 μM, 24 hr
Description: as §1, §2

[7] = system: T47D cells (vector control); assay: Cell death, photographs of treated cells
Description: (§3) FIG. 4. depicts 4A) the treatment of vector control or EGFR overexpressing T47D cells with 20 μM NSC624205 or vehicle for 24 hours and then photographed. […] 4B) Cells treated as in 4A) were subjected to immunoblot analysis.

[8] = system: T47D cells with enforced EGFR expression (T47D.EGFR); assay: Cell death, photographs of treated cells; details: 20 μM, 24 hours
Description: as §3

[9] = system: EGFR, HER2, HER3, Akt, Erk in SKBR3 cells; assay: Immunoblot analysis of treated cells; details: 20 μM, 24 h
Description: as §1
FIG. 5. depicts 5A) Photomicrographs of MDA-MB-468 cells treated for 24 h with 20 μM of the indicated compounds. 5B) Immunoblot analysis of MDA-MB-468 cells treated as in 5A. […] 5D) Viability of BT474 or MDA-MB-468 cells treated for 24 h with the indicated drug at the specified concentrations was measured in MTT assays. […] 5F)-5H) The indicated cell lines were treated with the indicated compounds at 20 μM unless otherwise indicated for 24 h and analyzed by immunoblot. […]

Erk in T47D cells = assay: Immunoblot analysis of treated cells; details: 20 μM, 24 h
Description: as §1, §2

[10] = system: EGFR, Akt in EGFR overexpressing T47D cells; assay: Immunoblot analysis of treated cells; details: 20 μM, 24 hours
Description: as §3

MDA-MB-468 cells = assay: Cell proliferation by thymidine incorporation; details: 24 hours, same concentration
Description: as §1, §2

SKBR3 cells [11] = assay: Cell proliferation by thymidine incorporation; details: 24 hours, same concentration
Description: as §1, §2

[12] = system: T47D.Puro and T47D.EGFR cells; assay: Thymidine incorporation, vector control versus EGFR overexpressing cells; details: 24 h, increasing concentrations
[13] = 25 μM pretreatment 15 hours, 20 ng/ml EGF 15 minutes
[14] = 24 h, increasing concentrations

With `CS(=O)(=O)CCNCc1ccc(-c2ccc3ncnc(Nc4ccc(OCc5cccc(F)c5)c(Cl)c4)c3c2)o1` [Lapatinib] the Akt phosphorylation ([1]; 24 h, 20 μM RBF3, 100 nM Rapamycin, 20 μM Lapatinib) was “without affecting”, the Erk phosphorylation ([1]; 24 h, 20 μM RBF3, 100 nM Rapamycin, 20 μM Lapatinib (FIG. 8C)) was “reduced” and the “response of cell viability to single drug” value (HCC1954 cells) was “slightly more responsive”.

In the case of `O=S(O)CCCCSSCC(O)CO` (stereo not drawn) [NSC606968], the Akt phosphorylation ([2]; 20 μM, 24 h) is reported as “weak effect” and the EGFR electrophoretic mobility ([2]; 20 μM, 24 h) is reported as “partial effect”.

With `O=S(O)CCCCSSCCCCSSCCCCS(=O)O` [NSC624205] the cell killing ([3]; 10 μM, 24 hr) was “killed”, the cell viability ([3]; 25 μM, 24 hours) was “lethal” and the cell viability [4] was “little effect”. For the same molecule, the cell killing [5] was “little effect”, the cell killing (SKBR3 cells [6]) was “killed” and the cell killing [7] was “not killed”. For the same molecule, the cell death [8] was “Extensive cell death; also recorded: underwent cell death”, the “EGFR electrophoretic mobility after washout (reversibility)” value ([2]; 20 μM for 24 hours, then 24 hours post-treatment without drug) was “restored to near control levels” and the “EGFR tyrosine phosphorylation on Tyr845, EGF-induced” value [2, 13] was “decreased”. The “overall EGF-induced cellular tyrosine phosphorylation” value [2, 13] was “decreased”, the EGFR electrophoretic mobility [2, 14] was “concentration-dependent increase” and the “EGFR phosphorylation (phospho-specific antibody)” value [2, 14] was “decrease”. The PARP cleavage [2, 14] was “concentration-dependent increase”, the Akt phosphorylation [9] was “inhibiting” and the Erk phosphorylation [9] was “inhibiting”. The Erk phosphorylation ([1]; 20 μM NSC624205, 24 h (FIG. 2E)) was “inhibiting”, the Erk phosphorylation (Erk in T47D cells) was “inhibiting” and the Akt phosphorylation [10] was “decreased”. For the same molecule, the EGFR electrophoretic mobility [10] was “electrophoretic mobility shift”.

With `O=S(O)CCCCSSSCCCCS(=O)O` [NSC333839] the cell viability ([3]; 20 μM, 24 h, panel of sulfinate-containing compounds) was “activity similar to NSC624205” and the “EGFR and Akt phosphorylation” value ([2]; 20 μM, 24 h) was “activity similar to NSC624205”.

In the case of `O=S(O)CCCCSSCC(O)C(O)CSSCCCCS(=O)O` (stereo not drawn) [NSC624203], the “inhibition of proliferation compared with commercial EGFR/HER2 tyrosine kinase inhibitor (Calbiochem #324673)” value (MDA-MB-468 cells) is reported as “more effectively suppressed”, the “inhibition of proliferation compared with commercial EGFR/HER2 tyrosine kinase inhibitor (Calbiochem #324673)” value (SKBR3 cells [11]) is reported as “more effectively suppressed” and the “sensitivity of proliferation of EGFR overexpressing T47D cells relative to control cells” value [12] is reported as “more sensitive”. The “decreasing Akt phosphorylation, increasing PARP cleavage, reducing EGFR and overall cellular tyrosine phosphorylation, compared with AG490 or EGFR/HER2 kinase inhibitor” value ([2]; 24 hours) was “more effective”.
